# Experimental data from patent US9718782B2, “TrkA kinase inhibitors, compositions and methods thereof” (MERCK SHARP & DOHME CORP, priority 2013, dated 2017).
# Target: T1, TrkA receptor (Homo sapiens, UniProt P04629)
# T1 construct: host or cells: U2OS (PathHunter, 'TrkA p75' cells)
# Assay: DiscoverX PathHunter TrkA functional assay (NGF-stimulated U2OS cells)
# Type: cell-based
# Settings: U2OS cells expressing TrkA-Prolink fusion and Shc1-EA; compound 1 hour, then EC80 NGF 3 hours; luminescence
# Description: TrkA functional activity was measured using a DiscoverX PathHunter assay. In this assay, U2OS cells are express TrkA receptor as a fusion with the weakly complementing fragment of B-galactosidase, which DiscoverX calls “Prolink (PK)”; additionally, Shcl is fused with a larger fragment, which is called “Enzyme Acceptor (EA)”. Activation of the TrkA receptor, upon NGF addition, results in the kinase domain being phosphorylated, resulting in subsequent recruitment of Shcl-EA protein. That recruitment results in an active B-galactosidase enzyme that is detected by addition of a chemiluminescent substrate.
# All reagents were purchased from DiscoverX, except for the receptor agonists (NGF, BDNF, NT3) which were purchased from Peprotech. Cells were expanded and frozen into cryovials (TrkA p75 @passage 13, 1.5×10^7 cells/vial; TrkC p75 @passage 11, 1.5×10^7 cells/vial in InVitrogen Recovery Cell Freezing media), and stored in the vapor phase of liquid nitrogen, and thawed immediately before use. Thawed cells were added to a 384-well plate (BD Falcon 384-well white/clear, TC surface 120 uL assay plates (353963), 20 uL of 0.375e6 cells/mL=>7500 cells/well), and allowed to incubate overnight. Compound (10 mM starting dose: 202.5 nL compound yielding 0.81% DMSO final in total assay volume and starting doses 81 uM) was added the following morning and allowed to incubate on cells for 1 hour. Then, 5 uL EC80 of agonist (NGF for TrkA; BDNF for TrkB; NT3 for TrkC) was added and allowed to incubate for 3 hours at room temperature. DiscoverX PathHunter detection reagent is added (12 uL to plate and components diluted in parts as per kit instructions) and the plate is further incubated for 1 hour in the dark. The plate is read via luminescence on the Perkin Elmer Envision.
# T1 sequence (P04629 33-796): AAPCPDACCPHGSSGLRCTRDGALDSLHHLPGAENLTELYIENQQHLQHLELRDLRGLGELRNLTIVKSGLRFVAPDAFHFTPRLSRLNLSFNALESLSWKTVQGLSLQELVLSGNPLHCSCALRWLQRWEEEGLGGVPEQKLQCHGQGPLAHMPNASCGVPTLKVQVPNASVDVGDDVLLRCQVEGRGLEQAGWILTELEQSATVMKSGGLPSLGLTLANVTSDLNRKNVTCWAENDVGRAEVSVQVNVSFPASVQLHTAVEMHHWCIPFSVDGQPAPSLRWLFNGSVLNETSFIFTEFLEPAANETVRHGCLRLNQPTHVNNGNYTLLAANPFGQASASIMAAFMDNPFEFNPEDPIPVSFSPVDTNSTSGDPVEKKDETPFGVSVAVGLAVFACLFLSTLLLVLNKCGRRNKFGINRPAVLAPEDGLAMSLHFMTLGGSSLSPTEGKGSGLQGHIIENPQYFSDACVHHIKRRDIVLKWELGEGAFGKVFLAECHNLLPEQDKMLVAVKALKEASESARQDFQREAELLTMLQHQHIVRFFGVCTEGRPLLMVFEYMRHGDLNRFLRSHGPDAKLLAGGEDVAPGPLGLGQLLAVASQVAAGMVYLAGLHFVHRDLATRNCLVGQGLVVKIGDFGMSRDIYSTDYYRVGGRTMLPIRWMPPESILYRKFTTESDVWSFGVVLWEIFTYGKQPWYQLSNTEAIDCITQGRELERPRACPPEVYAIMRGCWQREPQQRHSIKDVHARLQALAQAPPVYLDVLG
row,SMILES,IC50 [nM]
1,"Cc1ccc(NC(=O)NC2c3ccccc3-c3ccccc32)c(-c2ccccc2)n1 [Compound 1, 1-(9H-fluoren-9-yl)-3-(6-methyl-2-phenylpyridin-3-yl)urea]",69
2,"Cc1nc(-c2ccccc2)c(NC(=O)NC2c3ccccc3-c3ccccc32)s1 [Compound 2, 1-(9H-fluoren-9-yl)-3-(2-methyl-4-phenyl-1,3-thiazol-5-yl)urea]",140
3,"Cc1ncc(NC(=O)NC2c3ccccc3Oc3ccccc32)c(-c2ccccc2)n1 [Compound 3, 1-(2-methyl-4-phenylpyrimidin-5-yl)-3-(9H-xanthen-9-yl)urea]",61
4,"Cc1ncc(NC(=O)NC2c3ccccc3-c3ccccc32)c(-c2ccccc2)n1 [Compound 4, 1-(9H-fluoren-9-yl)-3-(2-methyl-4-phenylpyrimidin-5-yl)urea]",82
5,"Cc1ccc(NC(=O)NC2c3ccccc3-c3ccccc32)c(-c2ccc(F)cc2)n1 [Compound 5, 1-(9H-fluoren-9-yl)-3-[2-(4-fluorophenyl)-6-methylpyridin-3-yl]urea]",230
6,"O=C(Nc1c(-c2ccccc2)nc2sccn12)NC1c2ccccc2-c2ccccc21 [Compound 6, 1-(9H-fluoren-9-yl)-3-(6-phenylimidazo [2,1-b][1,3]thiazol-5-yl)urea]",35
7,"Cc1cc(NC(=O)NC2c3ccccc3-c3ccccc32)n(-c2ccccc2)n1 [Compound 7, 1-(9H-fluoren-9-yl)-3-(3-methyl-1-phenyl-1H-pyrazol-5-yl)urea]",44
8,"Cc1onc(-c2ccccc2)c1NC(=O)NC1c2ccccc2-c2ccccc21 [Compound 8, 1-(9H-fluoren-9-yl)-3-(5-methyl-3-phenylisoxazol-4-yl)urea]",190
9,"Cn1ncc(-c2ccccc2)c1NC(=O)NC1c2ccccc2-c2ccccc21 [Compound 9, 1-(9H-fluoren-9-yl)-3-(1-methyl-4-phenyl-1H-pyrazol-5-yl)urea]",530
10,"Cc1nn(C)c(NC(=O)NC2c3ccccc3-c3ccccc32)c1-c1ccccc1 [Compound 10, 1-(1,3-dimethyl-4-phenyl-1H-pyrazol-5-yl)-3-(9H-fluoren-9-yl)urea]",210
11,"O=C(Nc1cccnc1-c1ccccc1)NC1c2ccccc2-c2ccccc21 [Compound 11, 1-(9H-fluoren-9-yl)-3-(2-phenylpyridin-3-yl)urea]",27
12,"O=C(Nc1cnccc1-c1ccccc1)NC1c2ccccc2-c2ccccc21 [Compound 12, 1-(9H-fluoren-9-yl)-3-(4-phenylpyridin-3-yl)urea]",280
13,"Cc1ccc(NC(=O)NC2c3ccccc3-c3ccccc32)cn1 [Compound 13, 1-(9H-fluoren-9-yl)-3-(6-methylpyridin-3-yl)urea]",2500
14,"O=C(Nc1ccnn1-c1ccccc1)NC1c2ccccc2-c2ccccc21 [Compound 14, 1-(9H-fluoren-9-yl)-3-(1-phenyl-1H-pyrazol-5-yl)urea]",120
15,"O=C(Nc1cc(-c2ccccc2)nn1-c1ccccc1)NC1c2ccccc2-c2ccccc21 [Compound 15, 1-(1,3-diphenyl-1H-pyrazol-5-yl)-3-(9H-fluoren-9-yl)urea]",3000
16,"CC(C)(C)c1cc(NC(=O)NC2c3ccccc3-c3ccccc32)n(-c2ccccc2)n1 [Compound 16, 1-(3-tert-butyl-1-phenyl-1H-pyrazol-5-yl)-3-(9H-fluoren-9-yl)urea]",69
17,"CC(C)Cc1cc(NC(=O)NC2c3ccccc3-c3ccccc32)n(-c2ccccc2)n1 [Compound 17, 1-(9H-fluoren-9-yl)-3-[3-(2-methylpropyl)-1-phenyl-1H-pyrazol-5-yl]urea]",200
18,"Cc1ccccc1-n1nc(C(C)(C)C)cc1NC(=O)NC1c2ccccc2-c2ccccc21 [Compound 18, 1-[3-tert-butyl-1-(2-methylphenyl)-1H-pyrazol-5-yl]-3-(9H-fluoren-9-yl)urea]",850
19,"O=C(Nc1cc(C2CC2)nn1-c1ccccc1)NC1c2ccccc2-c2ccccc21 [Compound 19, 1-(3-cyclopropyl-1-phenyl-1H-pyrazol-5-yl)-3-(9H-fluoren-9-yl)urea]",69
20,"CC(C)(C)c1cc(NC(=O)NC2c3ccccc3-c3ccccc32)n(-c2ccc(F)cc2)n1 [Compound 20, 1-[3-tert-butyl-1-(4-fluorophenyl)-1H-pyrazol-5-yl]-3-(9H-fluoren-9-yl)urea]",190
21,"O=C(Nc1c(-c2ccccc2)nc2ccccn12)NC1c2ccccc2-c2ccccc21 [Compound 21, 1-(9H-fluoren-9-yl)-3-(2-phenylimidazo [1,2-a]pyridin-3-yl)urea]",28

row,SMILES,IC50 [nM]
1,"Cn1cnc(-c2ccccc2)c1NC(=O)NC1c2ccccc2-c2ccccc21 [Compound 22, 1-(9H-fluoren-9-yl)-3-(1-methyl-4-phenyl-1H-imidazol-5-yl)urea]",310
2,"Cc1nn(-c2ccc(F)cc2)c(NC(=O)NC2c3ccccc3-c3ccccc32)c1C#N [Compound 23, 1-[4-cyano-1-(4-fluorophenyl)-3-methyl-1H-pyrazol-5-yl]-3-(9H-fluoren-9-yl)urea]",330
3,"COc1ccc(-c2cc(NC(=O)NC3c4ccccc4-c4ccccc43)n(-c3ccccc3)n2)cc1 [Compound 24, 1-(9H-fluoren-9-yl)-3-[3-(4-methoxyphenyl)-1-phenyl-1H-pyrazol-5-yl]urea]",550
4,"O=C(Nc1c2cnc3ccccc3c2nn1-c1ccccc1)NC1c2ccccc2-c2ccccc21 [Compound 25, 1-(9H-fluoren-9-yl)-3-(2-phenyl-2H-pyrazolo[4,3-c]quinolin-3-yl)urea]",1400
5,"CNc1ncccc1NC(=O)NC1c2ccccc2-c2ccccc21 [Compound 26, 1-(9H-fluoren-9-yl)-3-[2-(methylamino)pyridin-3-yl]urea]",520
6,"Cc1ccc(NC(=O)NC2c3ccccc3-c3ccccc32)c(F)n1 [Compound 27, 1-(9H-fluoren-9-yl)-3-(2-fluoro-6-methylpyridin-3-yl)urea]",3200
7,"Cc1ncc(NC(=O)NC2c3ccccc3-c3ccccc32)c(-c2ccc(F)cc2)n1 [Compound 28, 1-(9H-fluoren-9-yl)-3-[4-(4-fluorophenyl)-2-methylpyrimidin-5-yl]urea]",150
8,"Cc1cc(-c2ccc(F)cc2)c(NC(=O)NC2c3ccccc3-c3ccccc32)cn1 [Compound 29, 1-(9H-fluoren-9-yl)-3-[4-(4-fluorophenyl)-6-methylpyridin-3-yl]urea]",480
9,"O=C(Nc1cncnc1-c1ccccc1)NC1c2ccccc2-c2ccccc21 [Compound 30, 1-(9H-fluoren-9-yl)-3-(4-phenylpyrimidin-5-yl)urea]",170
10,"O=C(Nc1ccccc1-c1ccccc1)NC1c2ccccc2-c2ccccc21 [Compound 31, 1-biphenyl-2-yl-3-(9H-fluoren-9-yl)urea]",960
11,"Cn1nnc(-c2cccc(NC(=O)NC3c4ccccc4-c4ccccc43)c2)n1 [Compound 32, 1-(9H-fluoren-9-yl)-3-[3-(2-methyl-2H-tetrazol-5-yl)phenyl]urea]",1200
12,"Cc1nnnn1-c1cccc(NC(=O)NC2c3ccccc3-c3ccccc32)c1 [Compound 33, 1-(9H-fluoren-9-yl)-3-[3-(5-methyl-1H-tetrazol-1-yl)phenyl]urea]",1700
13,"O=C(Nc1cccc(-n2cnnc2)c1)NC1c2ccccc2-c2ccccc21 [Compound 34, 1-(9H-fluoren-9-yl)-3-[3-(4H-1,2,4-triazol-4-yl)phenyl]urea]",1100
14,"O=C(Nc1ccccc1N1CCOCC1)NC1c2ccccc2-c2ccccc21 [Compound 35, 1-(9H-fluoren-9-yl)-3-(2-morpholin-4-ylphenyl)urea]",4000
15,"CN1CCN(Cc2ccccc2NC(=O)NC2c3ccccc3-c3ccccc32)CC1 [Compound 36, 1-(9H-fluoren-9-yl)-3-{2-[(4-methylpiperazin-1-yl)methyl]phenyl}urea]",3000
16,"Cc1nnc(-c2cccc(NC(=O)NC3c4ccccc4-c4ccccc43)c2)[nH]1 [Compound 37, 1-(9H-fluoren-9-yl)-3-[3-(5-methyl-4H-1,2,4-triazol-3-yl)phenyl]urea]",2300
17,"Cc1nccn1-c1cccc(NC(=O)NC2c3ccccc3-c3ccccc32)c1 [Compound 38, 1-(9H-fluoren-9-yl)-3-[3-(2-methyl-1H-imidazol-1-yl)phenyl]urea]",3000
18,"Cc1cc(NC(=O)NC2c3ccccc3-c3ccccc32)n(-c2ccccn2)n1 [Compound 39, 1-(9H-fluoren-9-yl)-3-(3-methyl-1-pyridin-2-yl-1H-pyrazol-5-yl)urea]",3000
19,"O=C(Nc1cccnc1C1CCCCC1)NC1c2ccccc2-c2ccccc21 [Compound 40, 1-(2-cyclohexylpyridin-3-yl)-3-(9H-fluoren-9-yl)urea]",200
20,"Cc1cc(NC(=O)NC2c3ccccc3-c3ccccc32)n(-c2ccc(F)cc2)n1 [Compound 41, 1-(9H-fluoren-9-yl)-3-[1-(4-fluorophenyl)-3-methyl-1H-pyrazol-5-yl]urea]",83
21,"Cn1cnnc1-c1cccc(NC(=O)NC2c3ccccc3-c3ccccc32)c1 [Compound 42, 1-(9H-fluoren-9-yl)-3-[3-(4-methyl-4H-1,2,4-triazol-3-yl)phenyl]urea]",110
